Like-named read-outs stand apart in the source and are kept apart here. Peptide text beside a SMILES is read from it. * marks the point of attachment. X1 = CC(C)CCCCCCCCCCCCC(=O)* Bounds are passed on as bounds.

Consider two compounds from PMC8589628, “Characterization and Antimicrobial Studies of Iturin-Like and Bogorol-Like Lipopeptides From Brevibacillus spp. Strains GI9 and SKDU10” (Frontiers in Microbiology, 2021).

Data set [1] can be described thus: Effect of temperature and pH on activity (well-diffusion assay). The format is physicochemical. Here is the method: Sensitivities of purified antimicrobial compounds to temperature, pH, and hydrolytic enzymes were confirmed by performing well-diffusion assay. pH stability was determined by adjusting the pH of aliquots of purified antimicrobial compounds from 2.0 to 12.0 (using 10 mM HCl or NaOH) and incubating at room temperature for 4 h. The residual activity was measured after neutralizing the sample to pH 7.0. To determine temperature susceptibility, antimicrobial compounds were incubated at different temperatures ranging from 37 to 100°C for 1 h and 121°C for 15 min, and then residual antimicrobial activity was determined after cooling the samples to room temperature. Similarly, proteolytic enzymes such as trypsin and proteinase K were used at three different concentrations (0.1, 1.0, and 5.0 mg/ml) to ensure their effect on the activity of antimicrobial compounds. The enzyme solutions were prepared in 50 mM phosphate buffer (pH 7.0). All reactions were performed at 37°C for 6 h followed by deactivation of the enzyme by heating the solution in boiling water for 5 min before performing the activity assay.

Data set [2] deals with V. cholerae MTCC 3904. Briefly: Time kill assay. To be noted: in PBS, CFU count. The format is cell-based. The protocol: Killing kinetics of purified compounds was performed using cells of S. aureus MTCC 1430, V. cholerae MTCC 3904, and C. albicans MTCC 183. Test strains were grown to obtain OD between 0.2 and 0.3 (OD 600 nm), centrifuged, and washed thrice with sterile PBS. Pellets were suspended in PBS and treated with different concentrations of active compounds. Cells after treatment were washed, resuspended, and serially diluted cell suspensions were plated on NA plates. After overnight incubation at 37°C, CFU were recorded ([Singh et al., 2021]).

The next data set relates to B. subtilis MTCC 121. The data set is classed as cell-based, Bacillus subtilis. Here is the method:
(§1) The antimicrobial activity of HPLC purified compounds was determined against various test strains including S. aureus MTCC 1430, Vibrio cholera MTCC 3904, Bacillus subtilis MTCC 121, Listeria monocytogenes MTCC 839, C. albicans MTCC 183, C. albicans MTCC 1637, C. albicans MTCC 227, C. tropicalis MTCC 184, C. glabrata MTCC 3019, and C. inconspicua MTCC 1074. Antimicrobial activity was also tested against clinical Candida strains and phytopathogenic fungi viz. Fusarium moniliforme MTCC 158, Alternaria brassicicola MTCC 2102 and Colletotrichum acutatum MTCC 1037. Bacterial and Candida test strains were grown in NB and yeast malt broth (YMB), respectively. Fungal test strains were grown in potato dextrose broth (PDB). Minimum inhibitory concentrations (MICs) of purified compounds were evaluated against test organisms by using a microtiter plate dilution assay. Mid-log-phase test strains (5 × 10^5 CFU/ml) were incubated in a 96-well plate with different concentrations of the lipopeptides for 24–48 h at 37°C (final volume of 200 μl). OD was measured at 600 nm after 24 and 48 h for bacteria and yeast, respectively, using an ELISA microplate reader (Thermo Scientific, United States). MIC against phytopathogenic fungi was determined using the 96-well microtiter plate method ([Sharma et al., 2020]).

Data set [3] has as its system Spores of A. brassicicola MTCC 2102. Briefly: Phase-contrast microscopy of treated spores. The data set is classed as cell-based, Alternaria brassicicola. To be noted: A. brassicicola MTCC 2102 spores, 2X MIC, 2 h. Here is the method: (§2) Effect of antimicrobial compounds on cell membrane of test organisms was determined by transmission electron microscopy (TEM). Test strains, S. aureus MTCC 1430, V. cholerae MTCC 3904, and C. albicans MTCC 183 were cultured to mid-log phase, washed, and re-suspended in 1X PBS (OD 600 nm 0.2). The cell suspensions were incubated (37°C) with 1X MIC of purified antimicrobial compounds for 30 min. Cells after treatment were centrifuged, washed twice with PBS. For TEM, cells of S. aureus MTCC 1430 and V. cholerae MTCC 3904 were subjected to negative stain with 0.1% (w/v) sodium phosphotungstate (PTA, Sigma, United States) in water for 1 min, on a carbon-coated copper grid with 300 mesh (Polyscience, United States) and observed under transmission electron microscope (JEOL JEM 2100, United States) ([Raje et al., 2006]). For SEM, C. albicans MTCC 183 cells were immobilized on poly L-lysine glazed glass slides and incubated at 4°C for 2 h. Cells were fixed using Karnovsky’s fixative and serially dehydrated with gradient of ethanol, freeze dried, and platinum coated. ZEISS EV040 (United States) scanning electron microscope was employed to photograph the cells ([Raje et al., 2006]). Spores of A. brassicicola MTCC 2102 were treated with 2X MIC of lipopeptides for 2 h and observed under phase-contrast microscope (Nickon H600L, Japan). […]

The test system of data set [4] is S. aureus MTCC 1430. Briefly: TLC-bioautography assay. The data set is classed as cell-based, Staphylococcus aureus. As to conditions: 10 μg/ml loaded on TLC silica gel; overlay on NA, 24 h at 37°C. The protocol:
Overlay thin-layer chromatography (TLC)-bioautography assay was used to determine the antimicrobial activity of the purified antimicrobial compounds ([Wedge and Nagle, 2000]). For bioautography, the antimicrobial compounds (10 μg/ml) were loaded on TLC silica gel plates in duplicates and were developed in one dimension using a solvent system containing chloroform: […]: water (65:12:4 v/v). TLC plate was cut into two vertical parts after running. One part of the TLC was used for direct detection of antimicrobial activity by overlaying it on NA containing S. aureus MTCC 1430 (about 10^6 cells ml^–1). After 1 h diffusion at 4°C, the TLC silica plate was removed and the NA plate was incubated for 24 h at 37°C. Other part of the TLC was sprayed with phosphomolybdic acid as a staining reagent for lipids.

The subject of data set [5] is L. monocytogenes MTCC 839. The format is cell-based, Listeria monocytogenes. The protocol:
as §1

Data set [6] relates to S. aureus MTCC 1430. Briefly: TEM of treated cells. As to conditions: S. aureus MTCC 1430, 1X MIC, 30 min, 37°C. The format is cell-based, Staphylococcus aureus. Here is the method:
as §2

Data set [7] has as its system V. cholerae MTCC 3904. Briefly: TEM of treated cells. The format is cell-based. To be noted: V. cholerae MTCC 3904, 1X MIC, 30 min, 37°C. The protocol: as §2
The mark [8] stands for this setting: Temperature 37 °C, 1h (pH 7.0), well-diffusion assay.
Setting [9] is: Temperature 60 °C, 1h (pH 7.0), well-diffusion assay.
Where [10] appears, read: Temperature 80 °C, 1h (pH 7.0), well-diffusion assay.
The mark [11] stands for this setting: Temperature 100 °C, 1h (pH 7.0), well-diffusion assay.
The mark [12] stands for this setting: Temperature 121 °C, 15 min (304 kPa) (pH 7.0), well-diffusion assay.
Where [13] appears, read: pH 2.0, 4h/ 25 °C, neutralised to pH 7.0 before well-diffusion assay.
Setting [14] is: pH 4.0, 4h/ 25 °C, neutralised to pH 7.0 before well-diffusion assay.
Setting [15] is: pH 6.0, 4h/ 25 °C, neutralised to pH 7.0 before well-diffusion assay.
Setting [16] is: pH 7.0, 4h/ 25 °C, well-diffusion assay.
Where [17] appears, read: pH 8.0, 4h/ 25°C, neutralised to pH 7.0 before well-diffusion assay.
[18] abbreviates: pH 10.0, 4h/ 25 °C, neutralised to pH 7.0 before well-diffusion assay.
Where [19] appears, read: pH 12.0, 4h/ 25 °C, neutralised to pH 7.0 before well-diffusion assay.

With “Dhb-Tyr-Orn-Ile-Val-Val-Lys-Val-Leu-Asp-Val-Glu [BLL, bogorol like lipopeptide purified from Brevibacillus sp. strain SKDU10; 12 amino acids and C17 hydroxy fatty acid side chain]”, the “Thermostability (activity after exposure to 121°C for 15 min, autoclaving)” value in data set [1] is listed as “thermostable”. In addition, the Residual activity is 100% in data set [1] (setting [8]); 100% in data set [1] (setting [9]); 100% in data set [1] (setting [10]); 100% in data set [1] (setting [11]); 100% in data set [1] (setting [12]); 52% in data set [1] (setting [13]). In addition, the Residual activity in data set [1] (setting [14]) was 100%; in data set [1] (setting [15]), 100%; in data set [1] (setting [16]) it was 100%; in data set [1] (setting [17]), 100%; in data set [1] (setting [18]), 94.3%; in data set [1] (setting [19]), “Nil”. The “Time to complete reduction in the load” value is no more than 30 min in the data set on V. cholerae MTCC 3904 [2] (V. cholerae MTCC 3904, 1X MIC) and no more than 30 min in the data set on V. cholerae MTCC 3904 [2] (V. cholerae MTCC 3904, 2X MIC). Further, the MIC value in the data set with B. subtilis MTCC 121 (B. subtilis MTCC 121, NB, 5 × 10^5 CFU/ml, 37°C, OD 600 nm after 24 h, 10–550 μg/ml in 5 μg/ml increments) was 225 to 235 µg/mL; in data set [5] (L. monocytogenes MTCC 839, NB, 5 × 10^5 CFU/ml, 37°C, OD 600 nm after 24 h, 10–550 μg/ml in 5 μg/ml increments), 230 to 240 µg/mL. In data set [3], the “Effect on spores (phase-contrast microscopy)” value is given as “structural irregularity”. The “Inhibition of S. aureus MTCC 1430 in TLC-based bioautography” value with S. aureus MTCC 1430 [4] is given as “active against S. aureus MTCC 1430”. Also, the “Effect on cells (TEM)” value in the data set with S. aureus MTCC 1430 [6] is “irregularities in structure with rupturing of cell wall and lysis”; with V. cholerae MTCC 3904 [7], “irregularities in structure with rupturing of cell wall and lysis”.

In the case of `CC(C)CCCCCCCCCCCCC(=O)N[C@H](C(=O)NCC(=O)N[C@@H](C)C(=O)N[C@@H](CO)C(=O)N[C@@H](Cc1c[nH]cn1)C(=O)N[C@@H](CCC(N)=O)C(=O)N[C@@H](CCC(N)=O)C(=O)O)[C@@H](C)O` [ILL] (X1-TGASHQQ-OH; N-terminus assumed), the Residual activity in data set [1] (setting [8]) was found to be 100%; in data set [1] (setting [9]), 100%; in data set [1] (setting [10]) it was 100%; in data set [1] (setting [11]) it was 100%; in data set [1] (setting [12]) it was 100%; in data set [1] (setting [13]), 43%. Moreover, the Residual activity in data set [1] (setting [14]) is recorded as 95.5%; in data set [1] (setting [15]) it was 100%; in data set [1] (setting [16]) it was 100%; in data set [1] (setting [17]), 100%; in data set [1] (setting [18]) it was 100%; in data set [1] (setting [19]), “Nil”. Further, the “Time to complete reduction in the load” value with V. cholerae MTCC 3904 [2] (V. cholerae MTCC 3904, 1X MIC) was no more than 60 min; with V. cholerae MTCC 3904 [2] (V. cholerae MTCC 3904, 2X MIC) it was no more than 60 min. Also, the MIC value with B. subtilis MTCC 121 (MTCC 121, 24 h) lay in the range of 260 to 270 µg/mL; in data set [5] (MTCC 839, 24 h), 200 to 220 µg/mL. Further, the “Effect on spores (phase-contrast microscopy)” value in data set [3] is listed as “structural irregularity”. Also, in the data set on S. aureus MTCC 1430 [4], the “Inhibition of S. aureus MTCC 1430 in TLC-based bioautography” value is listed as “inhibited S. aureus MTCC 1430”. Also, the “Effect on cells (TEM)” value was “lysis with accumulation of debris on cell surface, altered morphology, and shrinkage” with S. aureus MTCC 1430 [6]; “lysis with accumulation of debris on cell surface, altered morphology, and shrinkage” in the data set on V. cholerae MTCC 3904 [7].
